Data on 8 compounds can be found in US12501900B2, “Heterocyclyl pyridazine as fungicidal compounds” (Bayer Aktiengesellschaft, priority 2018, dated 2025).

Series [1] can be described thus: Measurement of LogP values by HPLC on reversed phase columns (EEC directive 79/831 Annex V.A8), methods [a], [b], [c]. The class given is physicochemical. Conditions: HPLC on reversed phase column, method [a]; read-out: Log P. The procedure: Measurement of Log P values as provided herein was performed according to EEC directive 79/831 Annex V.A8 by HPLC (High Performance Liquid Chromatography) on reversed phase columns with the following methods: • ^[a]
If more than one Log P value is available within the same method, all the values are given and separated by “+”.
Lambda-max-values were determined using UV-spectra from 200 nm to 400 nm and the peak values of the chromatographic signals

Series [2] deals with Alternaria brassicae. Briefly: In vivo preventive test on Alternaria brassicae (leaf spot on radish or cabbage). Conditions: 144 h, 500 ppm of active ingredient, preventive spray on radish or cabbage, evaluated 6 days after inoculation, read-out: efficacy. The procedure:
Example: In Vivo Preventive Test on Alternaria brassicae (Leaf Spot on Radish or Cabbage)
(§1) • Solvent: 5% by volume of Dimethyl sulfoxide • 10% by volume of Acetone • Emulsifier: 1 μl of Tween® 80 per mg of active ingredient
(§2) The active ingredients were made soluble and homogenized in a mixture of Dimethyl sulfoxide/Acetone//Tween®80 and then diluted in water to the desired concentration.
The young plants of radish or cabbage were treated by spraying the active ingredient prepared as described above. Control plants were treated only with an aqueous solution of Acetone/Dimethyl sulfoxide/Tween® 80.
After 24 hours, the plants were contaminated by spraying the leaves with an aqueous suspension of Alternaria brassicae spores. The contaminated radish or cabbage plants were incubated for 6 days at 20° C. and at 100% relative humidity.
The test was evaluated 6 days after the inoculation. 0% means an efficacy which corresponds to that of the control plants while an efficacy of 100% means that no disease was observed.

Series [3] deals with Botrytis cinerea. Briefly: In vivo preventive test on Botrytis cinerea (grey mould). Conditions: 500 ppm of active ingredient, preventive spray on gherkin or cabbage, evaluated 4 to 5 days after inoculation, read-out: efficacy. The procedure: Example: In Vivo Preventive Test on Botrytis cinerea (Grey Mould)
as §1, §2
The young plants of gherkin or cabbage were treated by spraying the active ingredient prepared as described above. Control plants were treated only with an aqueous solution of Acetone/Dimethyl sulfoxide/Tween® 80.
After 24 hours, the plants were contaminated by spraying the leaves with an aqueous suspension of Botrytis cinerea spores. The contaminated gherkin plants were incubated for 4 to 5 days at 17° C. and at 90% relative humidity. The contaminated cabbage plants were incubated for 4 to 5 days at 20° C. and at 100% relative humidity.
The test was evaluated 4 to 5 days after the inoculation. 0% means an efficacy which corresponds to that of the control plants while an efficacy of 100% means that no disease was observed.

Series [4] concerns Pyrenophora teres. Briefly: In vivo preventive test on Pyrenophora teres (net blotch on barley). Conditions: 240 h, 500 ppm of active ingredient, preventive spray on barley, evaluated 10 days after inoculation, read-out: efficacy. The procedure: Example: In Vivo Preventive Test on Pyrenophora teres (Net Blotch on Barley)
as §1, §2
The young plants of barley were treated by spraying the active ingredient prepared as described above. Control plants were treated only with an aqueous solution of Acetone/Dimethyl sulfoxide/Tween®80.
After 24 hours, the plants were contaminated by spraying the leaves with an aqueous suspension of Pyrenophora teres spores. The contaminated barley plants were incubated for 48 hours at 20° C. and at 100% relative humidity and then for 8 days at 20° C. and at 70-80% relative humidity.
The test was evaluated 10 days after the inoculation. 0% means an efficacy which corresponds to that of the control plants while an efficacy of 100% means that no disease was observed.

Series [5] has as its system Sphaerotheca fuliginea. Briefly: In vivo preventive test on Sphaerotheca fuliginea (powdery mildew on cucurbits). Conditions: Podosphaera fuliginea, 192 h; 500 ppm of active ingredient; preventive spray on gherkin; evaluated 8 days after inoculation; read-out: efficacy. The procedure: Example: In Vivo Preventive Test on Sphaerotheca fuliginea (Powdery Mildew on Cucurbits)
as §1, §2
The young plants of gherkin were treated by spraying the active ingredient prepared as described above. Control plants were treated only with an aqueous solution of Acetone/Dimethyl sulfoxide/Tween® 80.
After 24 hours, the plants were contaminated by spraying the leaves with an aqueous suspension of Sphaerotheca fuliginea spores. The contaminated gherkin plants were incubated for 8 days at 20° C. and at 70-80% relative humidity.
The test was evaluated 8 days after the inoculation. 0% means an efficacy which corresponds to that of the control plants while an efficacy of 100% means that no disease was observed.

In series [6] the test system is Colletotrichum lindemuthianum. Briefly: In vivo preventive test on Colletotrichum lindemuthianum (leaf spot on bean). Conditions: 168 h, 500 ppm of active ingredient, preventive spray on bean, evaluated 7 days after inoculation, read-out: efficacy. The procedure: Example: In Vivo Preventive Test on Colletotrichum lindemuthianum (Leaf Spot on Bean)
as §1, §2
The young plants of bean were treated by spraying the active ingredient prepared as described above. Control plants were treated only with an aqueous solution of Acetone/Dimethyl sulfoxide/Tween® 80.
After 24 hours, the plants were contaminated by spraying the leaves with an aqueous suspension of Colletotrichum lindemuthianum spores. The contaminated bean plants were incubated for 24 hours at 20° C. and at 100% relative humidity and then for 6 days at 20° C. and at 90% relative humidity.
The test was evaluated 7 days after the inoculation. 0% means an efficacy which corresponds to that of the control plants while an efficacy of 100% means that no disease was observed.

The subject of series [7] is Alternaria alternata. Briefly: Alternaria alternata in vitro cell test. The class given is cell-based. Conditions: 120 h, 20 ppm of active ingredient, liquid culture, 5 days incubation, read-out: efficacy (inhibition of fungal growth). The procedure: (§3) Example: Alternaria alternata In Vitro Cell Test • Solvent: DMSO • Culture medium: 14.6 g anhydrous D-glucose (VWR), 7.1 g Mycological Peptone (Oxoid), 1.4 g granulated Yeast Extract (Merck), QSP 1 liter • Inoculum: spores suspension Fungicides were solubilized in DMSO and the solution used to prepare the required range of concentrations. The final concentration of DMSO used in the assay was ≤1%. A spore suspension of A. alternata was prepared and diluted to the desired spore density. Fungicides were evaluated for their ability to inhibit spore germination and mycelium growth in liquid culture assay. The compounds were added in the desired concentration to the culture medium with spores. After 5 days incubation, fungi-toxicity of compounds was determined by spectrometric measurement of mycelium growth. Inhibition of fungal growth was determined by comparing the absorbance values in wells containing the fungicides with the absorbance in control wells without fungicides.

Series [8] relates to Colletotrichum lindemuthianum. Briefly: Colletotrichum lindemuthianum in vitro cell test. Conditions: 144 h, 20 ppm of active ingredient, liquid culture, 6 days incubation, read-out: efficacy (inhibition of fungal growth). It is filed as cell-based. Here is the method:
as §3, with “Example: Colletotrichum lindemuthianum” for “Example: Alternaria alternata”, “of C. lindemuthianum” for “of A. alternata”, “inhibit spores” for “inhibit spore”, “After 6” for “After 5”

One may read the inhibition as how much of the control response was suppressed. Take `Cc1cc(C2=NOCC(c3ccc(Cl)cc3)N2)c(Oc2cccc(C(F)(F)F)c2)nn1` (racemic) [I-040, rac-5-(4-chlorophenyl)-3-[6-methyl-3-[3-(trifluoro-methyl)phenoxy]pyridazin-4-yl]-5,6-dihydro-4H-1,2,4-oxadiazine]: in series [1], the chromatographic logP is 3.29. Besides, the pest or weed control at 500 ppm in series [2] is 90 to 100%; in series [3] it was 90 to 100%; in series [4], 80 to 89%; in series [5], 80 to 89%; in series [6], 90 to 100%. For the same compound, the inhibition at 20 ppm in series [7] and in series [8] was 90 to 100% in each case.
Turning to `Cc1ccc(CC2CON=C(c3c(Oc4cccc(C(F)(F)F)c4)nnc(Cl)c3NC3CC3)N2)c(C)c1` (racemic) [I-041, 3-chloro-N-cyclopropyl-5-[rac-5-[(2,4-dimethylphenyl)methyl]-5,6-dihydro-4H-1,2,4-oxadiazin-3-yl]-6-[3-(trifluoromethyl)phenoxy]pyridazin-4-amine], in series [1], the chromatographic logP was 4.03. Besides, the pest or weed control at 500 ppm in series [2], in series [3] and in series [5] was 90 to 100% in each case. The inhibition at 20 ppm in series [7] and in series [8] was 90 to 100% each time.
`Cc1ccc(CC2CON=C(c3c(Oc4cccc(C5CC5)c4F)nnc(Cl)c3C)N2)c(C)c1` (racemic) [I-058, rac-3-[6-chloro-3-(3-cyclopropyl-2-fluoro-phenoxy)-5-methyl-pyridazin-4-yl]-5-[(2,4-dimethylphenyl)methyl]-5,6-dihydro-4H-1,2,4-oxadiazine]: the chromatographic logP in series [1] came to 4.3. For the same compound, the pest or weed control at 500 ppm in series [2] lay within 90 to 100%; in series [3] it was 90 to 100%; in series [4], 80 to 89%; in series [5], 90 to 100%; in series [6], 90 to 100%. In addition, the inhibition at 20 ppm in series [7] and in series [8] was 90 to 100% throughout.
Consider `Cc1cc(C2=NOCCC(c3ccc4c(ccn4C)c3)N2)c(Oc2cccc(C(F)(F)F)c2)nn1` (racemic) [I-062, rac-5-(1-methylindol-5-yl)-3-[6-methyl-3-[3-(trifluoro-methyl)phenoxy]pyridazin-4-yl]-4,5,6,7-tetrahydro-1,2,4-oxadiazepine], for which, in series [1], the chromatographic logP is 1.92. The pest or weed control at 500 ppm in series [2], in series [3], in series [5] and in series [6] was 90 to 100% in each case.
For `Cc1ccc(CC2CON=C(c3c(Oc4cccc(C(F)(F)F)c4)nnc(Cl)c3I)N2)c(C)c1` (racemic) [I-065, rac-3-[6-chloro-5-iodo-3-[3-(trifluoromethyl)phenoxy]pyridazin-4-yl]-5-[(2,4-dimethylphenyl)methyl]-5,6-dihydro-4H-1,2,4-oxadiazine], in series [1], the chromatographic logP is 4.37. Further, the pest or weed control at 500 ppm in series [2] lay in the range of 90 to 100%; in series [4], 70 to 79%; in series [6], 90 to 100%. Further, the inhibition at 20 ppm in series [7] and in series [8] was 90 to 100% each time.
In the case of `Cc1ccc(CC2CCN=C(c3cc(Cl)nnc3Oc3cccc(C(F)(F)F)c3)N2)c(C)c1` (racemic) [I-117, 6-chloro-4-[rac-6-[(2,4-dimethylphenyl)methyl]-1,4,5,6-tetrahydropyrimidin-2-yl]-3-[3-(trifluoromethyl)phenoxy]pyridazine], the chromatographic logP in series [1] was 2.56. Also, the pest or weed control at 500 ppm in series [2], in series [3] and in series [6] was 90 to 100% in each case. Also, the inhibition at 20 ppm in series [7] and in series [8] was 90 to 100% in each case.
`Cc1ccc(OCC2CON=C(c3cc(C)nnc3Oc3cccc(C(F)(F)F)c3)N2)c(C)c1` (racemic) [I-144, rac-5-[(2,4-dimethylphenoxy)methyl]-3-[6-methyl-3-[3-(trifluoromethyl)phenoxy]pyridazin-4-yl]-5,6-dihydro-4H-1,2,4-oxadiazine]: the chromatographic logP in series [1] was 3.98. The pest or weed control at 500 ppm was 90 to 100% in series [2], 90 to 100% in series [3] and 70 to 79% in series [5]. Moreover, the inhibition at 20 ppm in series [7] and in series [8] was 90 to 100% in each case.
On to `COCCSc1nnc(Oc2cccc(C(F)(F)F)c2)c(C2=NOCC(Cc3ccc(C)cc3C)N2)c1C` (racemic) [I-187, rac-5-[(2,4-dimethylphenyl)methyl]-3-[6-(2-methoxyethylsulfanyl)-5-methyl-3-[3-(trifluoromethyl)phenoxy]pyridazin-4-yl]-5,6-dihydro-4H-1,2,4-oxadiazine], for which, in series [1], the chromatographic logP amounted to 4.51. Moreover, the pest or weed control at 500 ppm in series [2], in series [3] and in series [5] was 90 to 100% in each case. In addition, the inhibition at 20 ppm in series [7] and in series [8] was 90 to 100% throughout.
